We go through 14 compounds from patent publication US5134150A, “Inhibition of the 5-lipoxygenase pathway” (priority 1989, dated 1992).

Assay [1] has as its system Infiltration of Polymorphonuclear Leukocytes into Sites of Carrageenan-Induced Inflammation. Put plainly: Mouse carrageenan peritonitis (PMN infiltration). The following applies: for PMN infiltration, result in words: carrageenan peritonitis, mice. It counts as in vivo, mouse (male Balb/c). The source says:
(§1) In the following Examples where mice were used, they were male Balb/c mice (20-28 g), and where rats were used, they were male Lewis rats (180-210 g). All mice and rats were obtained from Charles River Breeding Laboratories, Kingston, N.Y. Within a single experiment, mice and rats were sex and age matched.
(§2) The compounds of Formula (I) were used either as the free base or in the appropriate salt form. Levamisole was used as the hydrochloride salt. The compounds were homogenized in 0.5% tragacanth. Compounds were administered by gavage at the indicated dose in a final volume of 10 ml/kg. Nordihydroguaiaretic acid (NDGA) was solubilized in dimethylacetamide and diluted with olive oil for subcutaneous administration.
Mice were pretreated with either the test compound or vehicle one hour before the intraperitoneal injection of a 1.0% carrageenan suspension in saline (0.2 ml/mouse). Mice were sacrificed by cervical dislocation two hours after injection, and 3.0 ml of phosphate buffered saline, without Ca^++ or Mg^++, was injected into the peritoneum. Following massage, a 2.0 ml aliquot of the lavage fluid was removed, and the total cell count determined on a Coulter counter and differential cell count determined by microscopic examination of Giesma-stained slides.

Assay [2] concerns Arachidonic Acid-Induced Inflammation of the Mouse Ear. Kind of assay: Arachidonic acid-induced mouse ear inflammation. The assay is classed as in vivo, mouse (male Balb/c). The following applies: for inhibition in vivo at 50 mg/kg: Mus musculus, 1 h, Table 7A, read-out: % Inhibition of Ear Swelling.
Source text: as §1, §2
Arachidonic acid in acetone ([…]) was applied to the inner surface of the left ear. The thickness of both ears was then measured with a dial micrometer one hour after treatment, and the data were expressed as the change in thickness (10^-3 cm) between treated and untreated ears.
Test compounds were given orally in 0.5% tragacanth at the times indicated in the text prior to the topical application of arachidonic acid.
Parenteral administration of compound was accomplished by subcutaneous injection of solution as indicated.

For assay [3], the system named is 5-lipoxygenase and LTA4 synthetase. Kind of assay: Di-HETE / LTB4 production by high speed supernatant of RBL-1 cells. It counts as biochemical. The following applies: RBL-1 high speed supernatant; Table 9A; read-out: 5-LO IC50 (LTB4 production). Here is the method:
(§3) For in vitro experiments, compounds were dissolved at appropriate concentrations in ethanol or DMSO (dimethylsulfoxide) (final concentration≤1.0%) and then diluted to final concentrations using the buffers indicated in the text.
(§4) The activities of these enzymes in extracts of RBL-1 cells were assayed using the method of Jakschik and Lee, Nature, 287, 51-52 (1980). RBL-1 cells were obtained from the American Type Culture Collection (#CRL 1378) and were grown at 37° C. (5% CO2 in air) in spinner culture in MEM supplemented with 10% heat inactivated fetal calf serum. Harvested cells were washed with 50 mM sodium phosphate buffer, pH 7.0, containing 1 mM EDTA and 0.1% gelatin, resuspended in fresh buffer (5×10^7 cells/ml) and disrupted by nitrogen cavitation using the Parr bomb at 750 psi for 10 min. The broken cell extract was then centrifuged at 10,000× g for 20 minutes (min) and the supernatant centrifuged at 100,000 xIg for 60 min. Aliquots (0.25 mls) of the supernatant were preincubated with or without drugs for 10 min, after which 10 μl CaCl2 (50 mM) was added and the reaction was initiated with 2.5 μl of 2.5 mM arachidonic acid-1-^14 C (final concentration was 25 μM; specific activity 20,000 dpm/nmole). After incubation for 3 min at 37° C., the reaction was terminated by addition of 2 volumes (0.5 ml) ice cold acetone and the sample was allowed to deproteinize on ice for 10 min prior to centrifugation at 1,000× g for 10 min. The deproteinized supernatant was adjusted to pH 3.5 with 2N formic acid and extracted with 2 volumes of ice cold ethyl acetate. The extracted samples were dried under argon, redissolved in ethyl acetate and applied to Whatman LK5D thin layer chromatography (TLC) plates which were developed using the A-9 solvent system [organic phase of ethyl acetate: 2,2,5-trimethylpentane:acetic acid: water (110:50:20:10)] described by Hamberg and Samuelsson, J. Biol. Chem., 241, 257-263 (1966). Arachidonic acid, 5-HETE, LTB4 and PGD2 were quantified with a Berthold LB 2832 autoscanner.
(§5) The 5-lipoxygenase and LTA4 synthetase activities were further studied under the following conditions. An additional centrifugation of the RBL-1 supernatant was run at 100,000× g for 60 min, to remove the particulate cyclooxygenase activity. Sample incubation was done under conditions similar to those described above, i.e., 2 mM CaCl2 and […] arachidonic acid-1-^14 C, however, with an incubation time of 5 min at 5° C. Under these conditions, only the 5-lipoxygenase pathway metabolites were detectable. The 5-HETE and di-HETEs were formed at a linear rate, and substantial amounts of the arachidonic acid-1-^14 C substrate were utilized.

For assay [4], the target named is T1, 5-Lipoxygenase (Rattus norvegicus, UniProt P12527).
T1 construct: The activities of these enzymes in extracts of RBL-1 cells were assayed; host or cells: RBL-1
T1 sequence (P12527 1-673): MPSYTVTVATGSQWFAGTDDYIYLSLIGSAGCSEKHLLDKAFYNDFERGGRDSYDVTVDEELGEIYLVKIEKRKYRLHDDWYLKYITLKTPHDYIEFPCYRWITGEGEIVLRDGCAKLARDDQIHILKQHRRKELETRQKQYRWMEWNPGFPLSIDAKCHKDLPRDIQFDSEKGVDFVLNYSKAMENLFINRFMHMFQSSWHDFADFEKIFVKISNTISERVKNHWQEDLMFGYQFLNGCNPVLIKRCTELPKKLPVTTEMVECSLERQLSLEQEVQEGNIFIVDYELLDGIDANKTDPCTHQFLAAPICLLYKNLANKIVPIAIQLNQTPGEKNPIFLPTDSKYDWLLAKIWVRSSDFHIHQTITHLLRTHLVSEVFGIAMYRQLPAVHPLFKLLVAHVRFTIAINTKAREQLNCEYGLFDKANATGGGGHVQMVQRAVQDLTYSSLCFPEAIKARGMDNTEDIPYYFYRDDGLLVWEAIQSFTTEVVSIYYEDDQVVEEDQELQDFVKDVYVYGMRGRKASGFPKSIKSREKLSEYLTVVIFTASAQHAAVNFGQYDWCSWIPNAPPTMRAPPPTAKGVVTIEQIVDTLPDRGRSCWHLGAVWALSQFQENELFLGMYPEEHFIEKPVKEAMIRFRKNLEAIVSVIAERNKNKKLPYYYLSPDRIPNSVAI
Put plainly: 5-HETE production by high speed supernatant of RBL-1 cells. The assay is classed as biochemical. The following applies: for IC50: RBL-1 high speed supernatant, Table 8A. Here is the method:
as §3, §4, §5

In assay [5] the test system is LTB4 and 5-HETE production. As to conditions: in vitro; cited from earlier work.
Assay [6] relates to rheumatoid arthritis. The following applies: preliminary observation; cited from earlier work.
Assay [7] concerns LTC4 production by human monocytes. Kind of assay: LTC4 production by human monocytes. It counts as cell-based. The arrangement: key to IC50, LTC4 production: NS = not significant. The following applies: A23187-stimulated human monocytes; for IC50: Monocyte. Here is the method: The compounds of Formula (I) were evaluated for their ability to inhibit the production of LTC4 by human monocytes according to the following assay. Human monocytes were prepared from whole blood supplied by the American Red Cross. The blood was fractinated by a two-step procedure employing sedimentation on Ficoll followed by sedimentation on Percoll. […] Non-adherent cells were removed by washing. […] When drugs were evaluated, they were added to the cells 30 minutes prior to the A23187. Supernatants were collected, […] by centrifugation and stored frozed at -20° C. until assay. The LTC4 content was determined by using a New England Nuclear Leukotriene C-4 (^3 H) RIA Kit as per instructions.

For assay [8], the system named is area of infarction following coronary occlusion. As to conditions: dogs; cited from earlier work.
Assay [9] concerns Experimental Allergic Encephalomyelitis Induced in Female Lewis Rats. Put plainly: Experimental allergic encephalomyelitis, hindleg paralysis. It counts as in vivo, rat (female Lewis). As to conditions: 0.3 mg/kg/day, p.o. The procedure:
EAE is induced in Female (Charles River) Lewis rats by a single intradermal injection of 0.1 ml of an encephalitogenic emulsion consisting of equial parts of a 50% w/v homogenate of guinea pig spinal cord and mid-brain in 0.5% aqueous phenol and Freund's complete adjuvant (4 mg/ml killed, dried M. butyricum) into a hindpaw (left) footpad. […] Any animal which becomes paralyzed during the course of the experiment is considered to have developed EAE whether or not the paralysis is permanent. Test compounds are administered daily beginning on the day of injection, for 19 days, exclusive of days 5, 6 12 and 13. Drug activity is determined by comparing the indicidence of EAE (paralysis) of the treated group with a control (vehicle) group. The level of significant difference between the treated groups and control groups is determined by a Chi-square test using a 2×2 contingency table. Body weight changes from day 0 are also statistically compared to the control group using a Student "t" test.

The test system of assay [10] is psoriasis. As to conditions: in vivo; cited from earlier work.
Assay [11] has as its system lipoxygenase. The following applies: in vitro; cited from earlier work.
Setting [12] is: 25 mg/kg, p.o., pretreated at 2 hrs.

Read-outs that look alike come from different tables or passages of the source.

As for `C[C@@H]1C[C@H]2[C@@H]3CCC4=CC(=O)C=C[C@]4(C)[C@@]3(F)[C@@H](O)C[C@]2(C)[C@@]1(O)C(=O)CO` [Dexamethasone, reference compound], the “PMN infiltration, result in words” value in assay [1] is listed as “effective”. Besides, in [2] (setting [12]), the “% Change (ear thickness)” value is given as -35% and the “Increase in Ear Thickness at 1 Hour” value is reported as 18.2 ± 4.1 × 10-3 cm. For the same compound, the “Mouse ear edema, result in words” value in assay [2] (mouse, in vivo) is “only moderately effective”.
Consider `Fc1ccc(-c2nc3n(c2-c2ccc(F)cc2)CCS3)cc1` [Compound 26], for which the IC50 in assay [3] and in [4] was over 10 µM each time. Moreover, the inhibition (usually the drop in the measured response relative to a control, in per cent) at 10 µM in [4] (read-out: inhibition of 5-HETE at 10 μM, 10 μM, Table 8A footnote) was determined as 46%.
Turning to `O=C(O)c1cc(/N=N/c2ccc(S(=O)(=O)Nc3ccccn3)cc2)ccc1O` [Sulfasalazine], the “Inhibition of LTB4 and 5-HETE production, in words” value in assay [5] is “inhibit LTB4”. For the same compound, the “Efficacy in rheumatoid arthritic patients, in words” value in [6] is listed as “efficacy, including remission”.
Regarding `[O-][S+]1CCn2c1nc(-c1ccc(F)cc1)c2-c1ccncc1` (stereo not shown) [Compound 28, 5-(4-pyridyl)-6-(4-fluorophenyl)-2,3-dihydroimidazo[2,1-b]thiazole-S-oxide], the IC50 (commonly the point on the concentration scale where inhibition reaches its midpoint) worked out at 1000 µM in assay [3] and 0.5 µM in assay [7]. For the same compound, the inhibition in vivo at 50 mg/kg in assay [2] (50 mg/kg s.c. or i.p.) was 69%.
As for `Fc1ccc(-c2c(-c3ccncc3)nc3n2CCS3)cc1` [Compound 12], in assay [3], the IC50 worked out at 17 µM. The “IC50, LTC4 production” value in [7] is recorded as “NS”. For the same compound, in assay [2] (50 mg/kg s.c. or i.p.), the inhibition in vivo at 50 mg/kg came out at 58%.
As to `CCNc1ccc(-c2nc3n(c2-c2ccc(NCC)cc2)CCS3)cc1` [Compound 17], the IC50 is 0.1 µM in [3] and 1.2 µM in assay [7]. In addition, the inhibition in vivo at 50 mg/kg in assay [2] (50 mg/kg s.c. or i.p.) came to 38%.
Take `NC1=NN(c2cccc(C(F)(F)F)c2)CC1` [BW755-C]: the “Area of infarction, in words” value in [8] was “reduced”.
On to `CC(=O)OC[C@H]1O[C@@H]([S-])[C@H](OC(C)=O)[C@@H](OC(C)=O)[C@@H]1OC(C)=O.CCP(CC)CC.[Au+]` [Auranofin], for which, in [1] (2 mg Au/kg, p.o., Table 3), the “% Change (PMN)” value is given as -6% and the “PMN (Mean ± S.D.)” value is on record as 7.50 ± 1.57 × 10^-5 /ml. In [1], the “PMN infiltration, result in words” value is “did not impair inflammatory cell infiltration”.
As to `CN(Cc1cnc2nc(N)nc(N)c2n1)c1ccc(C(=O)N[C@@H](CCC(=O)O)C(=O)O)cc1` [Methotrexate], in assay [9], the “Hindleg paralysis - cumulative incidence, day 9 to 13” value was 0/11 and the “Hindleg paralysis - cumulative incidence, day 14 to 18” value is listed as 0/11.
For `CC(Cc1ccc(O)c(O)c1)C(C)Cc1ccc(O)c(O)c1` (stereo not shown) [NDGA, Nordihydroguaiaretic acid], the “PMN infiltration, result in words” value in assay [1] is listed as “effective”.
As to `CC(C(=O)O)c1ccc2oc(-c3ccc(Cl)cc3)nc2c1` (stereo not shown) [Benoxaprofen], the “Effect on psoriasis, in words” value in [10] is “promising effect”. For the same compound, in assay [11], the “Lipoxygenase inhibitory activity, in words” value was “in vitro lipoxygenase inhibitory activity”.
For `O=S1(=O)CCn2c1nc(-c1ccc(F)cc1)c2-c1ccncc1` [Compound 29, 5-(4-pyridyl)-6-(4-fluorophenyl)-2,3-dihydroimidazo[2,1-b]thiazole-S-dioxide], the half-maximal inhibitory concentration (IC50) is over 100 µM in assay [3] and 0.5 µM in [7]. The inhibition in vivo at 50 mg/kg in assay [2] (po, 50 mg/kg p.o.) worked out at 67%.
In the same order, the values of `COc1ccc(-c2nc3n(c2-c2ccncc2)CCS3)cc1` [Compound 18] are 1.9 µM, 9.9 µM and 40%.
Compound `FC(F)(F)c1ccc(-c2nc3n(c2-c2ccc(C(F)(F)F)cc2)CCS3)cc1` [Compound 27] yielded an IC50 in assay [4] of 28 µM.
